Non-standard residues stand in square brackets, D forms with d. Residues, ends and D or L forms follow the SMILES beside them. *: point of attachment. Dansyl = CN(C)c1cccc2c(S(=O)(=O)*)cccc12; Tos = Cc1ccc(S(=O)(=O)*)cc1; CH2Cl = ClC*
Key:
[1] = molecular target: T1, factor VII/VIIa in the binary complex with tissue factor (Homo sapiens, UniProt P08709); test: linked enzyme chromogenic assay of factor X activation (S2222) with factor VII and TF positive J82 cells; type: biochemical; details: for Relative potency Ki 5 (MU): P3 side chain of peptide P3-Thr-Arg, one unit = inverse of the molar concentration at 5% inhibition of factor X activation; for Peptide (Ki 5): free peptide; for Peptide (Ki 5) / Peptidyl-CMK (Ki 5): inverse of molar concentration at 5% inhibition of factor X activation; for inhibitory activity (in words): peptides with R3 side chain on threonyl-arginine; for Ki 5: peptidyl chloromethyl ketones, Table 3; for Peptidyl-CMK (Ki 5): chloromethyl ketone analogue; for IC50: concentration required for 50% inhibition of the rate of factor X activation, column beside Peptidyl-CMK, read-out: Ki 50 (the source's name)
T1 construct: purified human factor VII (1 nM), purified as described by Fair, D; from tissue; TF endogenous on J82 cells (ATCC HTB1)
Method: Relative potency is expressed as megaunits (MU), where one unit is equal
to the inverse of the molar concentration at 5% inhibition of factor X
activation. Quantitation of inhibition of factor VII/VIIa in the binary
complex with tissue factor was performed in a linked enzyme chromogenic
assay using factor X, purified as described by Schwartz, B. S. et al.
(1981) J. Clin. Invest. 67:1650, and the chromogenic substrate S2222
(Helena Labs, Beaumont, Texa s). Briefly, the peptides were preincubated
with purified human factor VII (1 nM), purified as described by Fair, D.
incubation at room temperature 25 μl of 20 mM CaCl2, 1 ×
10^5 TF positive human bladder carcinoma derived J82 cells (available
from American Type Culture Collection, Rockville, Maryland, under
Accession No. ATCC HTB1), 25 μl of purified human factor human factor
(100 .eta.M) in 50 μl of TRIS buffered saline and 50 μl of 2 mM
S2222 was added. The use of J82 cells is an important feature of these in
vitro assays because they produce significant levels of TF for the
formation of active TF:VII/VIIa. The rate of conversion of factor X to Xa
was monitored kinetically by determination of the chromogenic product of
Inhibition by the compounds of this invention of the proteolytic activity of [TF:VII/VIIa] on factor X was analyzed by a chromogenic assay in which the substrate S-2222 is cleaved by the generated factor Xa. […] Analyses included the absence of effect of all such compounds on factor Xa, an enzyme closely homologous to factor VII and VIIa. […]

[TF:VII/VIIa] complex = molecular target: T2, [TF:VII/VIIa] complex (Homo sapiens, UniProt P08709); test: clotting inhibition of normal human plasma with J82 cells; type: biochemical
T2 construct: from tissue; host or cells: normal human plasma (factor VII); J82 cells (endogenous TF)
Method: Normal human plasma was diluted 1:3 by volume with 0.02 M Na Citrate, 0.14M NaCl pH 7.4 in a glass tube. Diluted plasma (100μl) was then mixed with 100μl of J82 cells at 1×10^6 cells/ml and 100 μl of inhibitor. Plasma clotting times were obtained by visual observation of initial turbidity following addition of 100 μl of 20 mM calcium chloride. Human plasma clotting times were also expressed as calculated milli-units of TF activity (assuming no inhibitor present).

T2 sequence (P08709 213-466 limits assumed): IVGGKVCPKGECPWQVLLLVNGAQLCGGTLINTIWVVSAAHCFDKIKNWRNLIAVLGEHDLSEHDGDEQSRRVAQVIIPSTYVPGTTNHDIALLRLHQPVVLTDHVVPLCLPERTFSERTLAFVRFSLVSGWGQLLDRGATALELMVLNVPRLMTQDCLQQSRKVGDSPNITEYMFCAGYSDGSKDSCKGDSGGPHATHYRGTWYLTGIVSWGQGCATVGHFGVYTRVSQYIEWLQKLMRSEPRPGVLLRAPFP
T2 sequence (P08709 61-212 partner limits assumed): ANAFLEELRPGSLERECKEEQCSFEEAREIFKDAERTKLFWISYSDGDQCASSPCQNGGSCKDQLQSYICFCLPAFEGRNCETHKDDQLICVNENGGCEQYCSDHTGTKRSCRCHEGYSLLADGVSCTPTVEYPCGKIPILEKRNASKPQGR
T2 sequence (P13726 33-295 partner): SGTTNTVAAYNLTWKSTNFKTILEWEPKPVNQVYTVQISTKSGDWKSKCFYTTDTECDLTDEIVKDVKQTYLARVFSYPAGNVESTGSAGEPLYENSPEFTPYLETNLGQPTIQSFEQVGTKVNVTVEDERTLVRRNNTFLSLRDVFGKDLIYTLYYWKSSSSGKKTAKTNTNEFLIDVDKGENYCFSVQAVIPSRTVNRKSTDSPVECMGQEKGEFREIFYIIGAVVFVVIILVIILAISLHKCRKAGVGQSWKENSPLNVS
T1 sequence (P08709 213-466 limits assumed): as the sequence (P08709 213-466 limits assumed) above
T1 sequence (P08709 61-212 partner limits assumed): as the sequence (P08709 61-212 partner limits assumed) above
T1 sequence (P13726 33-295 partner): as the sequence (P13726 33-295 partner) above

Row | Compound | inhibitory activity (in words) [1] | Ki 5 [1] | further results
1 | C[C@@H](O)[C@H](NC(=O)[C@@H](N)CC(N)=O)C(=O)N[C@@H](CCCNC(=N)N)C(=O)O [Example 1, H-L-Asn-L-Thr-L-Arg] (H-Asn-Thr-Arg-OH) | – | – | Relative potency Ki 5 (MU) [1]: 6.7 MU
2 | C[C@@H](O)[C@H](NC(=O)[C@@H](N)CC(=O)O)C(=O)N[C@@H](CCCNC(=N)N)C(=O)O [Example 2, H-L-Asp-L-Thr-L-Arg] (H-Asp-Thr-Arg-OH) | – | – | Relative potency Ki 5 (MU) [1]: 4.8 MU
3 | C[C@@H](O)[C@H](NC(=O)[C@@H](N)Cc1c[nH]cn1)C(=O)N[C@@H](CCCNC(=N)N)C(=O)O [Example 3, H-L-His-L-Thr-L-Arg] (H-His-Thr-Arg-OH) | – | – | Relative potency Ki 5 (MU) [1]: 6.2 MU; Peptide (Ki 5) [1]: 6.2 MU
4 | CC(C)C[C@H](N)C(=O)N[C@H](C(=O)N[C@@H](CCCNC(=N)N)C(=O)O)[C@@H](C)O [Example 4, H-L-Leu-L-Thr-L-Arg] (H-Leu-Thr-Arg-OH) | – | – | Relative potency Ki 5 (MU) [1]: 4.5 MU; Peptide (Ki 5) [1]: 4.5 MU
5 | C[C@@H](O)[C@H](N)C(=O)N[C@H](C(=O)N[C@@H](CCCNC(=N)N)C(=O)O)[C@@H](C)O [Example 5, H-L-Thr-L-Thr-L-Arg] (H-Thr-Thr-Arg-OH) | – | – | Relative potency Ki 5 (MU) [1]: 2.6 MU
6 | C[C@@H](O)[C@H](NC(=O)[C@@H](N)CCC(N)=O)C(=O)N[C@@H](CCCNC(=N)N)C(=O)O [Example 6, H-L-Gln-L-Thr-L-Arg] (H-Gln-Thr-Arg-OH) | – | – | Relative potency Ki 5 (MU) [1]: 2.5 MU
7 | C[C@@H](O)[C@H](N)C(=O)N[C@@H](CCCNC(=N)N)C(=O)O [Example 7, H-L-Thr-L-Arg] (H-Thr-Arg-OH) | slight activity | – | Relative potency Ki 5 (MU) [1]: 2.0 MU
8 | C[C@@H](O)[C@H](NC(=O)[C@@H](N)CC(N)=O)C(=O)N[C@@H](CCCNC(=N)N)C(=O)CCl [Example 8, H-L-Asn-L-Thr-L-Arg-CMK] (H-Asn-Thr-Arg-CH2Cl) | – | 44 MU | –
9 | C[C@@H](O)[C@H](NC(=O)[C@@H](N)CC(=O)O)C(=O)N[C@@H](CCCNC(=N)N)C(=O)CCl [Example 9, H-L-Asp-L-Thr-L-Arg-CMK] (H-Asp-Thr-Arg-CH2Cl) | – | 60 MU | –
10 | C[C@@H](O)[C@H](NC(=O)[C@@H](N)Cc1c[nH]cn1)C(=O)N[C@@H](CCCNC(=N)N)C(=O)CCl [Example 10, H-L-His-L-Thr-L-Arg-CMK] (H-His-Thr-Arg-CH2Cl) | – | 54 MU | Peptidyl-CMK (Ki 5) [1]: 54.0 MU; IC50 [1]: 120 µM
11 | CC(C)C[C@H](N)C(=O)N[C@H](C(=O)N[C@@H](CCCNC(=N)N)C(=O)CCl)[C@@H](C)O [Example 11, H-L-Leu-L-Thr-L-Arg-CMK] (H-Leu-Thr-Arg-CH2Cl) | – | 68 MU | Peptidyl-CMK (Ki 5) [1]: 67.5 MU; IC50 [1]: 95 µM; inhibition at 3 µM ([TF:VII/VIIa] complex; LTR-CMK final conc 3 μM): 5.3%; inhibition at 30 µM ([TF:VII/VIIa] complex; LTR-CMK final conc 30 μM): 41%; inhibition at 300 µM ([TF:VII/VIIa] complex; LTR-CMK final conc 300 μM): 75%
12 | CC(C)C[C@@H](N)C(=O)N[C@H](C(=O)N[C@@H](CCCNC(=N)N)C(=O)CCl)[C@@H](C)O [Example 15, H-D-Leu-L-Thr-L-Arg-CMK] (H-[dL]-Thr-Arg-CH2Cl) | – | 100 MU | –
13 | C[C@@H](O)[C@H](NC(=O)[C@H](N)Cc1ccccc1)C(=O)N[C@@H](CCCNC(=N)N)C(=O)CCl [Example 16, H-D-Phe-L-Thr-L-Arg-CMK] (H-[dF]-Thr-Arg-CH2Cl) | – | 42 MU | –
14 | CC(=O)N[C@@H](CC(C)C)C(=O)N[C@H](C(=O)N[C@@H](CCCNC(=N)N)C(=O)CCl)[C@@H](C)O [Example 17, Ac-L-Leu-L-Thr-L-Arg-CMK] (Ac-Leu-Thr-Arg-CH2Cl) | – | 60 MU | –
15 | Cc1ccc(S(=O)(=O)N[C@@H](CC(C)C)C(=O)N[C@H](C(=O)N[C@@H](CCCNC(=N)N)C(=O)CCl)[C@@H](C)O)cc1 [Example 18, Tosyl-L-Leu-L-Thr-L-Arg-CMK] (Tos-Leu-Thr-Arg-CH2Cl) | – | 60 MU | –
16 | CC(C)C[C@H](NS(=O)(=O)c1cccc2c(N(C)C)cccc12)C(=O)N[C@H](C(=O)N[C@@H](CCCNC(=N)N)C(=O)CCl)[C@@H](C)O [Example 19, Dansyl-L-Leu-L-Thr-L-Arg-CMK] (Dansyl-Leu-Thr-Arg-CH2Cl) | – | 35 MU | –
17 | CC(C)C[C@H](N)C(=O)N[C@@H](CO)C(=O)N[C@@H](CCCNC(=N)N)C(=O)CCl [Example 20, H-L-Leu-L-Ser-L-Arg-CMK] (H-Leu-Ser-Arg-CH2Cl) | – | 60 MU | –
18 | CC(C)C[C@H](N)C(=O)N1CCC[C@H]1C(=O)N[C@@H](CCCNC(=N)N)C(=O)CCl [Example 21, H-L-Leu-L-Pro-L-Arg-CMK] (H-Leu-Pro-Arg-CH2Cl) | – | 60 MU | –
19 | N=C(N)NCCC[C@H](NC(=O)[C@H](CO)NC(=O)[C@@H](N)CC(N)=O)C(=O)CCl [Example 22, H-L-Asn-L-Ser-L-Arg-CMK] (H-Asn-Ser-Arg-CH2Cl) | – | 60 MU | –
20 | C[C@@H](O)[C@H](NC(=O)[C@@H](N)CCC(=O)O)C(=O)N[C@@H](CCCNC(=N)N)C(=O)O [glutamyl] (H-Glu-Thr-Arg-OH) | inactive | – | –
21 | C[C@@H](O)[C@H](NC(=O)CN)C(=O)N[C@@H](CCCNC(=N)N)C(=O)O [glycyl] (H-Gly-Thr-Arg-OH) | inactive | – | –
22 | CC[C@H](C)[C@H](N)C(=O)N[C@H](C(=O)N[C@@H](CCCNC(=N)N)C(=O)O)[C@@H](C)O [isoleucyl] (H-Ile-Thr-Arg-OH) | inactive | – | –
23 | CSCC[C@H](N)C(=O)N[C@H](C(=O)N[C@@H](CCCNC(=N)N)C(=O)O)[C@@H](C)O [methionyl] (H-Met-Thr-Arg-OH) | inactive | – | –
24 | C[C@@H](O)[C@H](NC(=O)[C@@H](N)Cc1ccccc1)C(=O)N[C@@H](CCCNC(=N)N)C(=O)O [phenylalanyl] (H-Phe-Thr-Arg-OH) | inactive | – | –
25 | C[C@@H](O)[C@H](NC(=O)[C@@H]1CCCN1)C(=O)N[C@@H](CCCNC(=N)N)C(=O)O [prolyl] (H-Pro-Thr-Arg-OH) | inactive | – | –
26 | C[C@@H](O)[C@H](NC(=O)[C@@H](N)CO)C(=O)N[C@@H](CCCNC(=N)N)C(=O)O [seryl] (H-Ser-Thr-Arg-OH) | inactive | – | –
27 | C[C@@H](O)[C@H](NC(=O)[C@@H](N)Cc1c[nH]c2ccccc12)C(=O)N[C@@H](CCCNC(=N)N)C(=O)O [tryptophanyl] (H-Trp-Thr-Arg-OH) | inactive | – | –
28 | C[C@@H](O)[C@H](NC(=O)[C@@H](N)Cc1ccc(O)cc1)C(=O)N[C@@H](CCCNC(=N)N)C(=O)O [tyrosyl] (H-Tyr-Thr-Arg-OH) | inactive | – | –
29 | CC(C)[C@H](N)C(=O)N[C@H](C(=O)N[C@@H](CCCNC(=N)N)C(=O)O)[C@@H](C)O [valyl] (H-Val-Thr-Arg-OH) | inactive | – | –
